Active and inactive are the calls of the source. No cut-off for these calls is given here.
Key:
[1] = Selectivity index, ratio of IC50 for human MRC5 cells to IC50 for Trypanosoma brucei Lister 427, antigenic type MiTat 1.2, clone 221a; assay type: toxicity; details: MRC5 cells versus Trypanosoma brucei Lister 427, read-out: Ratio IC50
[2] = tested on: Trypanosoma brucei; assay: Stabilization of 5'-FAM /3'-Tamra labelled Trypanosoma brucei EBR1-FT G-quadruplex DNA in presence of 1 x 10^-5 M dsDNA competitior by FRET melting assay relative to control
[3] = Cytotoxicity against human THP1 cells; assay type: cell-based; details: THP-1 cells, read-out: TC50 (the source's name)
[4] = Drug localization in kinetoplast of Trypanosoma brucei at 5 x 10^-6 M after 4 hrs by DAPI staining-based fluorescence confocal microscopy method; assay type: ADME, subcellular; details: 5 µM
[5] = tested on: Trypanosoma brucei; assay: Stabilization of 5'-FAM /3'-Tamra labelled Trypanosoma brucei F21T G-quadruplex DNA in presence of 1 x 10^-5 M dsDNA competitior by FRET melting assay
[6] = tested on: MRC5; assay: Cytotoxicity against human MRC5 cells assessed as reduction in cell viability after 48 hrs by MTT assay; assay type: cell-based; details: MRC5, 48 h
[7] = tested on: Trypanosoma brucei; assay: Stabilization of 5'-FAM /3'-Tamra labelled Trypanosoma brucei F21T G-quadruplex DNA at 2 x 10^-6 M by FRET melting assay
[8] = tested on: Leishmania major; assay: Leishmaniacidal activity against Leishmania major MHOM/IL/80/Friedlin promastigotes after 72 hrs by MTT assay; assay type: functional, organism-based
[9] = tested on: Trypanosoma brucei; assay: Stabilization of Trypanosoma brucei EBR1 G-quadruplex DNA up to 30 x 10^-6 M by CD titration assay
[10] = tested on: Quadruplex DNA; assay: Binding affinity to 22AG telomeric G-quadruplex DNA (unknown origin) assessed as association constant by fluorescence titration assay; assay type: nucleic-acid assay
[11] = tested on: Quadruplex DNA; assay: Stabilization of 22AG telomeric G-quadruplex DNA (unknown origin) assessed as red shift at 8 uM by fluorescence absorption emisssion spectroscopy method; assay type: nucleic-acid assay
[12] = Selectivity index, ratio of TC50 for human THP1 cells to IC50 for Leishmania major MHOM/IL/80/Friedlin amastigotes; assay type: toxicity; details: THP1 cells versus Leishmania major amastigotes, read-out: Selectivity Index
[13] = tested on: Trypanosoma brucei; assay: Binding affinity to Trypanosoma brucei EBR1 G-quadruplex DNA assessed as association constant by fluorescence titration assay
[14] = Drug localization in nucleus of Trypanosoma brucei at 5 x 10^-6 M after 4 hrs by DAPI staining-based fluorescence confocal microscopy method; assay type: ADME, subcellular; details: 5 µM
[15] = tested on: Leishmania major; assay: Leishmaniacidal activity against Leishmania major MHOM/IL/80/Friedlin amastigotes infected in human THP1 cells after 72 hrs by luciferase luminescence assay; assay type: functional, organism-based; details: THP-1, 72 h
[16] = tested on: Trypanosoma brucei; assay: Stabilization of 5'-FAM /3'-Tamra labelled Trypanosoma brucei EBR1-FT G-quadruplex DNA at 2 x 10^-6 M by FRET melting assay
[17] = tested on: Trypanosoma brucei; assay: Trypanocidal activity against Trypanosoma brucei Lister 427, antigenic type MiTat 1.2, clone 221a after 72 hrs by alamarBlue assay; assay type: functional, organism-based; details: Lister 427, 72 h
[18] = tested on: Trypanosoma brucei; assay: Stabilization of 5'-FAM /3'-Tamra labelled Trypanosoma brucei F21T G-quadruplex DNA in presence of 3 x […] M dsDNA competitior by FRET melting assay
[19] = tested on: Quadruplex DNA; assay: Stabilization of 22AG telomeric G-quadruplex DNA (unknown origin) assessed as reduction in emission at 8 uM by fluorescence absorption emisssion spectroscopy method; assay type: nucleic-acid assay; parameters: scale not given: the % may be the effect or the level left
[20] = Drug uptake in Trypanosoma brucei assessed as reduction in intracellular fluorescence at 5 x 10^-6 M at 4 degreeC incubated for 90 mins by flow cytometric analysis relative to drug uptake at 37 degC; assay type: ADME, cell-based; details: 1.5 h, 5 µM
[21] = Drug uptake in Trypanosoma brucei assessed as reduction in intracellular fluorescence at 5 x 10^-6 M at 4 to 37 degreeC by flow cytometric analysis; assay type: ADME, cell-based; details: 5 µM, TDE = time-dependent effect
[22] = tested on: Erythrocyte; assay: Hemolytic activity in mouse RBC after 1 hr; assay type: ADME, cell-based
[23] = Drug uptake in Trypanosoma brucei at 5 x 10^-6 M at 37 degC incubated for 90 mins by flow cytometric analysis; assay type: ADME; details: 1.5 h, 5 µM
[24] = tested on: Trypanosoma brucei; assay: Stabilization of 5'-FAM /3'-Tamra labelled Trypanosoma brucei EBR1-FT G-quadruplex DNA assessed as change in melting temperature at 0.5 x 10^-6 M by FRET melting assay
[25] = tested on: Trypanosoma brucei; assay: Stabilization of 5'-FAM /3'-Tamra labelled Trypanosoma brucei EBR1-FT G-quadruplex DNA assessed as change in melting temperature at 5 x 10^-7 M by FRET melting assay
[26] = tested on: Trypanosoma brucei; assay: Stabilization of 5'-FAM /3'-Tamra labelled Trypanosoma brucei EBR1-FT G-quadruplex DNA assessed as impeding of completing melting of DNA at 2 x 10^-6 M by FRET melting assay
[27] = tested on: Trypanosoma brucei; assay: Stabilization of 5'-FAM /3'-Tamra labelled Trypanosoma brucei F21T G-quadruplex DNA assessed as change in melting temperature at 5 x 10^-7 M by FRET melting assay
[28] = tested on: Quadruplex DNA; assay: Stabilization of 22AG telomeric G-quadruplex DNA (unknown origin) assessed as reduction in emission at 8 uM by fluorescence absorption emisssion spectroscopy method relative to control; assay type: nucleic-acid assay; parameters: scale not given: the % may be the effect or the level left

With `CN(C)CCCN1C(=O)c2ccc3c4c(c(NCCCn5cc(COCCOCCOCCO[C@@H]6O[C@H](CO)[C@@H](O[C@@H]7O[C@H](CO)[C@H](O)[C@H](O)[C@H]7O)[C@H](O)[C@H]6O)nn5)cc(c24)C1=O)C(=O)N(CCCN(C)C)C3=O` the selectivity ratio [1] was 6, the Activity [2] was “Active” and the CC50 [3] was 5710 nM. For the same molecule, the Drug uptake [4] was “Active”, the Activity [5] was “Active” and the IC50 [6] was 240 nM. For the same molecule, the Activity [7] was “Active”, the IC50 [8] was 170 nM and the Activity [9] was “Active”. The Ka [10] was 8.4 ×10⁵ /M, the Activity [11] was “Active” and the selectivity ratio [12] was 10.8. The Ka [13] was 1.1 ×10⁶ /M, the Drug uptake [14] was “Active” and the IC50 [15] was 530 nM. The Activity [16] was “Active”, the IC50 [17] was 40 nM and the Activity [18] was “inactive”.

For `CN(C)CCCN1C(=O)c2ccc3c4c(c(NCCCn5cc(CCO[C@@H]6O[C@H](CO)[C@@H](O)[C@H](O)[C@H]6O)nn5)cc(c24)C1=O)C(=O)N(CCCN(C)C)C3=O`, the selectivity ratio [1] was 7.5, the Activity [2] was “Active” and the CC50 [3] was 2180 nM. The Drug uptake [4] was “Active”, the Activity [5] was “Active” and the IC50 [6] was 450 nM. The Activity [7] was “Active”, the Activity [19] was 10% and the IC50 [8] was 70 nM. The Activity [9] was “Active”, the Drug uptake [20] was 36% and the Ka [10] was 9.2 ×10⁵ /M. For the same molecule, the Activity [11] was 10 nm, the Drug uptake [21] was “Tde” and the selectivity ratio [12] was 3. For the same molecule, the Ka [13] was 1.2 ×10⁶ /M, the Drug uptake [14] was “Active” and the IC50 [15] was 720 nM. The Activity [16] was “Active”, the Activity [22] was “Non-Toxic” and the IC50 [17] was 60 nM. The Activity [18] was “inactive” and the Drug uptake [23] was “Active”.

In the case of `CN(C)CCCN1C(=O)c2ccc3c4c(c(NCCCn5cc(COCCOCCOCCO[C@@H]6O[C@H](CO)[C@@H](O)[C@H](O)[C@H]6O)nn5)cc(c24)C1=O)C(=O)N(CCCN(C)C)C3=O`, the selectivity ratio [1] is reported as 1.6, the Activity [2] is reported as “Active” and the CC50 [3] is reported as 1860 nM. The Drug uptake [4] was “Active”, the Activity [5] was “Active” and the IC50 [6] was 730 nM. For the same molecule, the Activity [7] was “Active”, the IC50 [8] was 480 nM and the Activity [9] was “Active”. The Ka [10] was 4.8 ×10⁵ /M, the Activity [11] was “Active” and the selectivity ratio [12] was 3.9. The Ka [13] was 6.9 ×10⁵ /M, the Drug uptake [14] was “Active” and the IC50 [15] was 480 nM. For the same molecule, the Activity [16] was “Active”, the IC50 [17] was 440 nM and the Activity [18] was “inactive”.

In the case of `CN(C)CCCc1cc2c3c(c(NCCCn4cc(CCO[C@@H]5O[C@H](CO)[C@@H](O)[C@H](O)[C@H]5O)nn4)cc4c3c1C(=O)N(CCCN(C)C)C4=O)C(=O)N(CCCN(C)C)C2=O`, the selectivity ratio [1] is reported as 30.2, the Activity [2] is reported as “inactive” and the ΔTm [24] is reported as 24 °C. The ΔTm [25] was 11.5 °C, the Drug uptake [4] was “Active” and the Activity [5] was “Active”. For the same molecule, the IC50 [6] was 7250 nM, the Activity [7] was “inactive” and the IC50 [8] was 9770 nM. The Activity [26] was “Active”, the Activity [9] was “Active” and the ΔTm [27] was 22.1 °C. For the same molecule, the Activity [28] was 40%, the Ka [10] was 4.4 ×10⁶ /M and the Ka [13] was 1 ×10⁷ /M. The Drug uptake [14] was “Active”, the Activity [22] was “Non-Toxic” and the IC50 [17] was 240 nM. For the same molecule, the Activity [18] was “inactive”.

Source: ChEMBL document CHEMBL4330066, “Carbohydrate-naphthalene diimide conjugates as potential antiparasitic drugs: Synthesis, evaluation and structure-activity studies” (Eur J Med Chem, 2019)
